In brackets after ≈: the same amount, converted by molar mass.
Assays:
[1] = Antioxidant activity assessed as inhibition of superoxide anion radical formation after 5 mins in presence of PMS and NADH by nitroblue tetrazolium method relative to control; type: functional
Staphylococcus aureus = experiment: Antibacterial activity against Staphylococcus aureus ATCC 25923 at 40 ug/ml after 48 hrs by filter paper disc method; type: functional; settings: ATCC 25923, 48 h, read-out: IZ
Bacillus spizizenii = experiment: Antibacterial activity against Bacillus subtilis ATCC 6633 at 1000 ug/ml after 48 hrs by filter paper disc method; type: functional; settings: ATCC 6633, 48 h, read-out: IZ
[2] = system: Mycobacterium tuberculosis; experiment: Antimycobacterial activity against Mycobacterium tuberculosis H37Rv ATCC 25618 after 5 days; type: functional; settings: H37Rv ATCC 25618, 120 h
[3] = Antioxidant activity assessed as inhibition of ABTS radical formation relative to control; type: functional; parameters: concentration or dose not given beside the values; settings: dose or concentration not given here
[4] = system: Mycobacterium tuberculosis; experiment: Antimycobacterial activity against Mycobacterium tuberculosis; type: functional
[5] = system: Mycobacterium tuberculosis; experiment: Growth inhibition of Mycobacterium tuberculosis relative to control; type: functional
NCI-H460 = experiment: Growth inhibition of human NCI-H460 cells; type: functional, cell-based
SF-268 = experiment: Growth inhibition of human SF268 cells; type: functional, cell-based
MCF7 = experiment: Growth inhibition of human MCF7 cells; type: functional, cell-based
Streptococcus pneumoniae = experiment: Antibacterial activity against Streptococcus pneumoniae at 1000 ug/ml after 48 hrs by filter paper disc method; type: functional; settings: read-out: IZ

CCOC(=O)CSC(SCC(=O)OCC)=C(C#N)C(=O)Nc1sc2c(c1C(=O)OCC)CCCC2
inhibition [1]: 58.9%

COc1ccc(NC(=O)Nc2sc3ccccc3c2Cl)cc1
zone of inhibition at 40 µg/mL (Staphylococcus aureus): 15 to 16 mm

O=C(Nc1ccc(C2=NN(c3ccc(F)cc3)C(c3ccccc3)C2)cc1)c1sc2ccccc2c1Cl (centres undefined)
zone of inhibition at 1000 µg/mL (Bacillus spizizenii): 16 mm

O=S1(=O)C=C(Sc2nc3ccccc3o2)c2ccccc21
MIC99 [2]: 5.7 µM (≈ 1.8 µg/mL)

CCOC(=O)c1c(NC2=CC(=O)C(=O)c3ccccc32)sc2c1CCCC2
inhibition [3]: 65.6%

Cc1ccccc1Nc1nnc(NC(=O)c2cc3cc(Oc4ccccc4)ccc3s2)s1
MIC [4]: > 6.25 mg/L
growth inhibition (GI) [5]: 60%

O=S1(=O)C=C(Sc2nnc(-c3ccccc3)o2)c2ccccc21
MIC99 [2]: 3.1 µM (≈ 1.06 µg/mL)

COc1ccc(Nc2nnc(NC(=O)c3cc4cc(Oc5ccccc5)ccc4s3)s2)cc1
MIC [4]: > 6.25 mg/L
growth inhibition (GI) [5]: 90%

CCOC(=O)c1c(NC(=O)c2c(NC(=O)CC#N)sc3c2CCC3)sc2c1CCCC2
inhibition [1]: 61.4%

Clc1c(-c2nnc(CNc3ccccc3)o2)sc2ccccc12
zone of inhibition at 1000 µg/mL (Bacillus spizizenii): 15 mm

N=C1c2c(sc3c2CCCC3)N=C(SCC(=O)c2ccccc2)C1C(=O)c1ccccc1 (centres undefined)
IC50 (NCI-H460): 0.02 µM
IC50 (SF-268): 0.01 µM
IC50 (MCF7): 0.01 µM

O=C(NN1C(=O)/C(=C/c2cccc(Br)c2)N=C1c1ccccc1)c1sc2ccc(Cl)cc2c1Cl
MIC [4]: > 6.25 mg/L
growth inhibition (GI) [5]: 67%

O=S1(=O)C=C(Sc2nnc(-c3ccc(Cl)cc3)o2)c2ccccc21
MIC99 [2]: 3.9 µM (≈ 1.47 µg/mL)

CCOC(=N)n1cnc2c(sc3cc(F)ccc32)c1=O
zone of inhibition at 1000 µg/mL (Bacillus spizizenii): 24 mm
zone of inhibition at 40 µg/mL (Staphylococcus aureus): 25 mm
zone of inhibition at 1000 µg/mL (Streptococcus pneumoniae): 25 mm

O=C(NNc1ccc(F)cc1)Nc1sc2ccccc2c1Cl
zone of inhibition at 40 µg/mL (Staphylococcus aureus): 15 to 16 mm

Cn1nnnc1SC1=CS(=O)(=O)c2ccccc21
MIC99 [2]: 2.6 µM (≈ 0.729 µg/mL)

CCOC(=O)c1c(NC(=O)/C(C#N)=C(/S)Nc2ccccc2)sc2c1CCCC2
inhibition [1]: 57.1%

COc1ccc(-c2nnc(SC3=CS(=O)(=O)c4ccccc43)o2)cc1
MIC99 [2]: 7.2 µM (≈ 2.68 µg/mL)

N#Cc1c(/N=C/NNc2ccccc2)sc2c1CCCC2
IC50 (NCI-H460): 0.03 µM
IC50 (SF-268): 0.03 µM
IC50 (MCF7): 0.03 µM

Cc1ccc(-n2c(S)nnc2NC(=O)c2sc3ccc(Cl)cc3c2Cl)cc1
MIC [4]: > 6.25 mg/L
growth inhibition (GI) [5]: 64%

COc1ccc(/C=C/C(=O)c2ccc(NC(=O)c3sc4ccccc4c3Cl)cc2)cc1
zone of inhibition at 1000 µg/mL (Bacillus spizizenii): 16 mm

CCOC(=O)C1=C(NCC2=C(O)C(=O)c3ccccc3C2=O)SC2CCCCC12 (centres undefined)
inhibition [3]: 63.2%

N#Cc1c(/N=C/n2nc(N)cc2O)sc2c1CCCC2
IC50 (NCI-H460): 0.08 µM
IC50 (SF-268): 0.06 µM
IC50 (MCF7): 0.02 µM

NNC1=Nc2sc3c(c2C(=O)C1C(=O)c1ccccc1)CCCC3 (centres undefined)
IC50 (NCI-H460): 0.02 µM
IC50 (SF-268): 0.01 µM
IC50 (MCF7): 0.03 µM

N#Cc1c(/N=C/C2C(N)=NN=C2O)sc2c1CCCC2 (centres undefined)
IC50 (NCI-H460): 0.01 µM
IC50 (SF-268): 0.02 µM
IC50 (MCF7): 0.02 µM

O=C(Nn1c(-c2ccccc2Cl)nc2ccccc2c1=O)c1sc2ccccc2c1Cl
MIC [4]: 6.25 mg/L (≈ 13.4 µM)

Cc1ccc(-c2nnc(SC3=CS(=O)(=O)c4ccccc43)o2)cc1
MIC99 [2]: 8.2 µM (≈ 2.92 µg/mL)

CCOC(=O)c1c(NC2=C(OC)C(=O)c3ccccc3C2=O)sc2c1CCCC2
inhibition [3]: 89.9%

CCOC(=O)c1c(/N=C/n2nc(N)cc2O)sc2c1CCCC2
IC50 (NCI-H460): 0.02 µM
IC50 (SF-268): 0.05 µM
IC50 (MCF7): 0.01 µM

N#Cc1c(/N=C/c2ccccc2)sc2c1CCCC2
IC50 (NCI-H460): 0.01 µM
IC50 (SF-268): 0.02 µM
IC50 (MCF7): 0.02 µM

CCOC(=O)C1=C(NNC2=C(O)C(=O)c3ccccc3C2=O)SC2CCCCC12 (centres undefined)
inhibition [3]: 98.9%

O=C(Nn1c(-c2ccccc2[N+](=O)[O-])nc2ccccc2c1=O)c1sc2ccccc2c1Cl
MIC [4]: 12.5 mg/L (≈ 26.2 µM)

COC1=C(Nc2sc3c(c2C(N)=O)CCCC3)C(=O)c2ccccc2C1=O
inhibition [3]: 96%

Cc1cccc(NNC(=O)Nc2sc3ccccc3c2Cl)c1
zone of inhibition at 40 µg/mL (Staphylococcus aureus): 15 to 16 mm
zone of inhibition at 1000 µg/mL (Streptococcus pneumoniae): 16 mm

COc1ccccc1Nc1nnc(NC(=O)c2cc3cc(Oc4ccccc4)ccc3s2)s1
MIC [4]: > 6.25 mg/L
growth inhibition (GI) [5]: 60%

O=C(NN1C(=O)/C(=C/c2ccccc2[N+](=O)[O-])N=C1c1ccccc1)c1sc2ccc(Cl)cc2c1Cl
MIC [4]: > 6.25 mg/L
growth inhibition (GI) [5]: 71%

— ChEMBL document CHEMBL4130365, “An overview of benzo[b]thiophene-based medicinal chemistry” (Eur J Med Chem, 2017)
